Measured values: article PMC6600263, “Neuroprotective Effects of Red Ginseng Saponins in Scopolamine-Treated Rats and Activity Screening Based on Pharmacokinetics” (Molecules, 2019)
Where two headings read alike, the source gives them in different places.

Tests used:
[1] = pharmacokinetics of 16 ginsenosides in rat plasma after oral administration of RGS; type: in vivo; conditions: for Cmax / MRT / half-life / Tmax / C Max / T1/2 / T Max: SD, rat, po, 100 mg/kg
Protocol: The SD rats were randomly allocated into two groups, i.e., normal group and SA-treated group.
Blood samples were collected from the postocular vein at 0.083, 0.25, 0.5, 1, 2, 3, 4, 6, 8, 12 and 24 h after SA injection. Blood sample immediately was centrifuged at 18,000 rpm for 10 min. Plasma was withdrawn (0.15 mL) and diluted with 0.3 mL of acetonitrile and 20 µL of the IS (6 µg/mL). After 30 min, the mixture was clarified by centrifugation at 18,000 rpm for 10 min at 4 °C. The supernatant was dried under a stream of N2, and the residue was dissolved in 0.1 mL of methanol and stored at −20 °C for further analysis.
The UPLC-MS/MS system (Waters Xeve TQ, Waters, Cork, Ireland) with a column C18 (ACQUITY, 1.7 μm, 2.1 × 50 mm, Waters, Cork, Ireland) were adopted at 35 °C. Water (A) and acetonitrile (B) were used as mobile phases at a flow rate of 0.4 mL/min. The treatment of elution was performed according to following pattern: 10% B for 0–5.0 min; 10→15% B for 5.0–8.0 min; 15→25% B for 8.0–12.0 min; 25→40% for 12.0–20.0 min; 40→50% B for 20.0–25.0 min; 50→65% B for 25.0–30.0 min. With regard to mass detection, the negative mode of electrospray ionization source was adopted. The optimized parameters of multiple reactions monitoring (MRM) system including collision energy, Q1 Pre Bias, Q3 Pre Bias, collision energy and MRM transition of the 16 ginsenosides are shown in Table 1.
Based on a non-compartmental method, WinNonlin software (Phoenix, version 6.1) was employed to calculate the pharmacokinetic parameters. The statistical difference between groups was analyzed by One-Way ANOVA analysis using SPSS Version 17.0. (SPSS Inc., Chicago, IL, USA). The difference between groups was regarded significant when p < 0.05. We first normalized the pharmacokinetic data and then visualized them based on principal component analysis (PCA).

[2] = system: scopolamine-induced learning ability impairment; design: method as in PMID 24503167; conditions: rats; cited from earlier work
[3] = plasma, model (scopolamine 1 mg/kg i.p.-treated) rats, oral RGS single dose 100 mg/kg, plasma, mean ± S.D., n = 5, read-out: C Max
[4] = plasma, model (scopolamine 1 mg/kg i.p.-treated) rats, oral RGS single dose 100 mg/kg, plasma, mean ± S.D., n = 5, read-out: MRT
[5] = plasma, model (scopolamine 1 mg/kg i.p.-treated) rats, oral RGS single dose 100 mg/kg, plasma, mean ± S.D., n = 5, read-out: T1/2 (converted)
[6] = plasma, model (scopolamine 1 mg/kg i.p.-treated) rats, oral RGS single dose 100 mg/kg, plasma, mean ± S.D., n = 5, read-out: T Max
[7] = plasma, normal rats, oral RGS single dose 100 mg/kg, plasma, mean ± S.D., n = 5, read-out: C Max
[8] = plasma, normal rats, oral RGS single dose 100 mg/kg, plasma, mean ± S.D., n = 5, read-out: MRT
[9] = plasma, normal rats, oral RGS single dose 100 mg/kg, plasma, mean ± S.D., n = 5, read-out: T1/2 (converted)
[10] = plasma, normal rats, oral RGS single dose 100 mg/kg, plasma, mean ± S.D., n = 5, read-out: T Max
[11] = model (scopolamine 1 mg/kg i.p.-treated) rats, oral RGS single dose 100 mg/kg, plasma, mean ± S.D., n = 5
[12] = normal rats, oral RGS single dose 100 mg/kg, plasma, mean ± S.D., n = 5
[13] = in vivo, model (scopolamine 1 mg/kg i.p.-treated) rats, oral RGS single dose 100 mg/kg, plasma, mean ± S.D., n = 5, read-out: C Max
[14] = in vivo, model (scopolamine 1 mg/kg i.p.-treated) rats, oral RGS single dose 100 mg/kg, plasma, mean ± S.D., n = 5, read-out: MRT
[15] = in vivo, model (scopolamine 1 mg/kg i.p.-treated) rats, oral RGS single dose 100 mg/kg, plasma, mean ± S.D., n = 5, read-out: T1/2 (converted)
[16] = in vivo, model (scopolamine 1 mg/kg i.p.-treated) rats, oral RGS single dose 100 mg/kg, plasma, mean ± S.D., n = 5, read-out: T Max
[17] = in vivo, normal rats, oral RGS single dose 100 mg/kg, plasma, mean ± S.D., n = 5, read-out: C Max
[18] = in vivo, normal rats, oral RGS single dose 100 mg/kg, plasma, mean ± S.D., n = 5, read-out: MRT
[19] = in vivo, normal rats, oral RGS single dose 100 mg/kg, plasma, mean ± S.D., n = 5, read-out: T1/2 (converted)
[20] = in vivo, normal rats, oral RGS single dose 100 mg/kg, plasma, mean ± S.D., n = 5, read-out: T Max

Structure (SMILES)	Cmax [1, 3]	MRT [1, 4]	half-life [1, 5]	Tmax [1, 6]	Cmax [1, 7]	MRT [1, 8]	half-life [1, 9]	Tmax [1, 10]	AUC 0-t [1, 11]	AUC 0-t [1, 12]	C Max ([1]; in vivo)	MRT ([1]; in vivo)	T1/2 ([1]; in vivo)	Cmax ([1]; in vivo, C Max)	MRT ([1]; in vivo, MRT)	half-life ([1]; in vivo, T1/2)	other results
C=C(CCC=C(C)C)C1CCC2(C)C1C(O)CC1C3(C)CCC(OC4OC(CO)C(O)C(O)C4OC4OC(CO)C(O)C(O)C4O)C(C)(C)C3CCC12C (centres unmarked) [Rk1]	50.1 ± 3.7 ng/g	26.8 ± 2.5 h	29.3 ± 2.1 h	6 ± 0.8 h	32.1 ± 5.9 ng/g	21.3 ± 1.8 h	18.1 ± 9.8 h	6 ± 0.9 h	736.8 ± 17.7 ng·h/g	556.8 ± 13.4 ng·h/g							
CC(C)=CCCC(C)(OC1OC(CO)C(O)C(O)C1O)C1CCC2(C)C1C(O)CC1C3(C)CCC(O)C(C)(C)C3C(OC3OC(CO)C(O)C(O)C3O)CC12C (centres unmarked) [Rg1]	32.2 ± 2.1 ng/g	16.5 ± 3.2 h	10.2 ± 1.2 h	4 ± 0.9 h	20.5 ± 2.5 ng/g	15.6 ± 2.1 h	9.6 ± 1.5 h	4 ± 1.2 h	664.5 ± 15.2 ng·h/g	568.9 ± 10.3 ng·h/g							effect on scopolamine-induced learning ability impairment [2]: improves
CC(C)=CCCC(C)(OC1OC(CO)C(O)C(O)C1O)C1CCC2(C)C1C(O)CC1C3(C)CCC(OC4OC(CO)C(O)C(O)C4OC4OC(CO)C(O)C(O)C4O)C(C)(C)C3CCC12C (centres unmarked) [Rd]	45.6 ± 2.9 ng/g	7.7 ± 1.3 h	6.2 ± 1.9 h	2 ± 0.8 h	47.5 ± 2.6 ng/g	8.6 ± 1.2 h	5.5 ± 5.6 h	1.5 ± 0.4 h	331.2 ± 11.2 ng·h/g	321.5 ± 9.1 ng·h/g							effect on scopolamine-induced learning ability impairment [2]: do not
CC(C)=CCC=C(C)C1CCC2(C)C1C(O)CC1C3(C)CCC(OC4OC(CO)C(O)C(O)C4OC4OC(CO)C(O)C(O)C4O)C(C)(C)C3CCC12C (centres unmarked) [Rg5]	37.3 ± 2.8 ng/g	25.6 ± 2.6 h	27.3 ± 3.6 h	8 ± 1.6 h	34.4 ± 2.6 ng/g	22.2 ± 1.4 h	17.1 ± 2.5 h	4 ± 1.8 h	569.8 ± 10.2 ng·h/g	415.6 ± 20.1 ng·h/g							
CC(C)=CCCC(C)(OC1OC(COC2OCC(O)C(O)C2O)C(O)C(O)C1O)C1CCC2(C)C1C(O)CC1C3(C)CCC(OC4OC(CO)C(O)C(O)C4OC4OC(CO)C(O)C(O)C4O)C(C)(C)C3CCC12C (centres unmarked) [Rb2]	17.2 ± 2.1 ng/g	7.9 ± 1.2 h	6.9 ± 1.2 h	1.5 ± 0.2 h	18.5 ± 2.5 ng/g	8.6 ± 2.1 h	6.5 ± 1.5 h	1.5 ± 0.2 h	90.3 ± 8.2 ng·h/g	89.6 ± 9.3 ng·h/g							
CC(C)=CCCC(C)(OC1OC(CO)C(O)C(O)C1O)C1CCC2(C)C1C(O)CC1C3(C)CCC(O)C(C)(C)C3C(OC3OC(CO)C(O)C(O)C3OC3OC(C)C(O)C(O)C3O)CC12C (centres unmarked) [Re]	24.9 ± 6.9 ng/g	8.6 ± 1.1 h	11.3 ± 2.9 h	0.5 ± 0.1 h	25.6 ± 2.6 ng/g	9.6 ± 1.2 h	12.3 ± 2.6 h	0.5 ± 0.4 h	298.6 ± 21.2 ng·h/g	278.3 ± 9.1 ng·h/g							
CC(C)=CCCC(C)(O)C1CCC2(C)C1C(O)CC1C3(C)CCC(O)C(C)(C)C3C(OC3OC(CO)C(O)C(O)C3OC3OC(CO)C(O)C(O)C3O)CC12C (centres unmarked) [Rf]											18.8 ± 2.6 ng/g	7.4 ± 1.3 h	7.5 ± 1.5 h	17.6 ± 5.9 ng/g	6.5 ± 1.2 h	6.6 ± 1.2 h	Tmax ([1]; in vivo, T Max): 2 ± 0.6 h
CC(C)=CCCC(C)(O)C1CCC2(C)C1C(O)CC1C3(C)CCC(OC4OC(CO)C(O)C(O)C4O)C(C)(C)C3CCC12C (centres unmarked) [Rh2]									369.8 ± 8.0 ng·h/g	356.8 ± 12.8 ng·h/g							Cmax [1, 13]: 30.2 ± 4.8 ng/g; MRT [1, 14]: 11.8 ± 2 h; half-life [1, 15]: 7.6 ± 2.1 h; Tmax [1, 16]: 2 ± 0.3 h; Cmax [1, 17]: 26.9 ± 2.6 ng/g; MRT [1, 18]: 12.3 ± 2.1 h; half-life [1, 19]: 9.8 ± 2.5 h; Tmax [1, 20]: 2 ± 0.5 h
CC(C)=CCC=C(C)C1CCC2(C)C1C(O)CC1C3(C)CCC(OC4OC(CO)C(O)C(O)C4O)C(C)(C)C3CCC12C (centres unmarked) [Rh3]											37.6 ± 4.8 ng/g	19.8 ± 2.8 h	13.6 ± 3.1 h	24.3 ± 3.9 ng/g	15.6 ± 3.5 h	12.6 ± 3.2 h	T Max ([1]; in vivo): 10.2 ± 1.5 h; Tmax ([1]; in vivo, T Max): 14.4 ± 1.2 h
CC(C)=CCC=C(C)C1CCC2(C)C1C(O)CC1C3(C)CCC(O)C(C)(C)C3C(OC3OC(CO)C(O)C(O)C3O)CC12C (centres unmarked) [Rh4]											38.7 ± 4.8 ng/g	12.3 ± 2.0 h	9.9 ± 2.1 h	35.6 ± 3.6 ng/g	11.2 ± 2.1 h	8.8 ± 1.5 h	Tmax ([1]; in vivo, T Max): 4 ± 0.5 h
CC(C)=CCCC(C)(O)C1CCC2(C)C1C(O)CC1C3(C)CCC(OC4OC(CO)C(O)C(O)C4OC4OC(CO)C(O)C(O)C4O)C(C)(C)C3CCC12C (centres unmarked) [Rg3]											32.3 ± 4.6 ng/g	22.5 ± 2.1 h	19.8 ± 1.5 h	29.6 ± 5.9 ng/g	24.3 ± 1.2 h	21.3 ± 2.2 h	
C=C(CCC=C(C)C)C1CCC2(C)C1C(O)CC1C3(C)CCC(O)C(C)(C)C3C(OC3OC(CO)C(O)C(O)C3O)CC12C (centres unmarked) [Rk3]											16.6 ± 2.8 ng/g	8.9 ± 1.8 h	6.9 ± 2.1 h	14.2 ± 3.9 ng/g	9.6 ± 1.5 h	6.5 ± 0.9 h	T Max ([1]; in vivo): 1.5 ± 0.5 h; Tmax ([1]; in vivo, T Max): 1 ± 0.2 h
CC(C)=CCCC(C)(OC1OC(COC2OC(CO)C(O)C2O)C(O)C(O)C1O)C1CCC2(C)C1C(O)CC1C3(C)CCC(OC4OC(CO)C(O)C(O)C4OC4OC(CO)C(O)C(O)C4O)C(C)(C)C3CCC12C (centres unmarked) [Rc]	21 ± 4.8 ng/g	8.9 ± 2.2 h	7.9 ± 3.1 h	1.5 ± 0.5 h	19.1 ± 2.9 ng/g	9.6 ± 1.5 h	8.9 ± 3.2 h	1.5 ± 3.2 h	109.8 ± 10.2 ng·h/g	102.3 ± 20.2 ng·h/g							
CC(C)=CCCC(C)(O)C1CCC2(C)C1C(O)CC1C3(C)CCC(O)C(C)(C)C3C(OC3OC(CO)C(O)C(O)C3O)CC12C (centres unmarked) [Rh1]									278.6 ± 12.8 ng·h/g	215.5 ± 12.1 ng·h/g							Cmax [1, 13]: 46.9 ± 7.8 ng/g; MRT [1, 14]: 11.2 ± 2 h; half-life [1, 15]: 8.9 ± 2.1 h; Tmax [1, 16]: 1.5 ± 0.3 h; Cmax [1, 17]: 41.2 ± 4.6 ng/g; MRT [1, 18]: 9.6 ± 2.1 h; half-life [1, 19]: 9.8 ± 2.5 h; Tmax [1, 20]: 1 ± 0.5 h
